In patent US7642277B2, “Non-nucleoside reverse transcriptase inhibitors” (Boehringer Ingelheim International GmbH, priority 2002, dated 2010):

Assays:
HIV-1 (wild type) = experiment: P24 cellular assay (EC50), data identified with * in Table 9, wild type; format: cell-based; conditions: Human immunodeficiency virus 1
From the text: P24 Cellular Assay (EC50) (Data Identified with * in Table 9).
The p24 assay is as described in WO 01/96338, the contents of which are herein incorporated by reference.
(§1) The results are listed in Table 9 as IC50(nM) and EC50 (nM).
(§2) Table legend: A=>100; B=100-50; C=<50; NT=not tested

[1] = biological target: T1, HIV-1 RT resistant mutant K103N/Y181C (Human immunodeficiency virus type 1 group M subtype B, UniProt P04585, K690N/Y768C); experiment: Reverse transcriptase (RT) enzymatic assay (IC50), PicoGreen fluorescence, resistant mutant; format: biochemical
T1 construct: The reverse transcriptase (RT) enzyme assay has been adapted to a 96-well microtiter plate format
Procedure: Reverse Transcriptase (RT) Assays Enzymatic Assay (IC50)
The enzymatic assay employed is described as follows: The reverse transcriptase (RT) enzyme assay has been adapted to a 96-well microtiter plate format and uses PicoGreen™ as a fluorescent intercalator. More explicitly, the HIV-1 RT enzyme was thawed and appropriately diluted into Tris/HCl 50 mM pH 7.8 containing NaCl 60 mM, MgCl2∘6H2O 2 mM, DTT 6 mM, GSH 2 mM and 0.02% w/v Chaps to give ≈10 nM enzyme. To 10 μL of this enzyme solution was added 10 μL of inhibitor solution (40 μM to […] inhibitor in the same assay buffer as above containing 4% v/v DMSO). The plate was pre-incubated for 15 minutes at room temperature before proceeding to the next step. In this pre-incubation step, the highest and lowest inhibitor concentrations were 20 μM and 1.016 nM respectively and the concentration of DMSO was 2% v/v. Then the enzymatic reaction was initiated by addition of 20 μL of substrate solution. The final reaction mixture contained Tris/HCl 50 mM pH 7.8, NaCl 60 mM, MgCl2∘6H2O 2 mM, DTT 6 mM, GSH 2 mM, CHAPS 0.02% w/v, DMSO 1% v/v, poly rC 45 nM, dG15 4.5 nM, dGTP 3.6 μM, and ≈2.5 nM enzyme. In this incubation step, the highest and lowest inhibitor concentrations were 10 μM and 0.508 nM respectively. After addition of the substrate cocktail, the plate was covered with a plastic seal and incubated for 50 minutes at 37° C. in a dry incubator. The reaction was then quenched by addition of 5 μL of EDTA 0.5 M. The plate was shaken for 30 seconds at medium speed and incubated for 5 minutes at room temperature. Then 160 μL of PicoGreen™ 1:400 dilution from commercial stock (diluted in Tris 20 mM pH 7.5 with EDTA 1 mM) was added and the plate was shaken for 30 seconds and incubated for 10 minutes at room temperature. The plate was then analyzed using a POLARstar Galaxy fluorimeter (BMG Labtechnologies) with λex and λem of 485 nm and 520 nm respectively. […] Each row contained at its extremities a blank and a control well.
as §2

[2] = biological target: T2, HIV-1 RT enzyme (wild type) (Human immunodeficiency virus type 1 group M subtype B, UniProt P04585); experiment: Reverse transcriptase (RT) enzymatic assay (IC50), PicoGreen fluorescence, wild type; format: biochemical; conditions: RT enzymatic assay, wild type; read-out: IC50 WT
T2 construct: The reverse transcriptase (RT) enzyme assay has been adapted to a 96-well microtiter plate format
In short: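 Enzyme at ≈10 nM in 50 mM Tris/HCl pH 7.8 with 60 mM NaCl, 2 mM MgCl2, 6 mM DTT, 2 mM GSH, 0.02% Chaps; 15 min preincubation with compound at room temperature, then substrate added and run 50 min at 37 °C. EDTA quench; product DNA read by PicoGreen fluorescence.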

[3] = system: HIV-1 resistant mutant K103N/Y181C in C8166 LTRluc cells; experiment: C8166 HIV-1 luciferase assay (EC50), resistant mutant; format: cell-based; conditions: Human immunodeficiency virus 1, C8166, read-out: EC50 K103N/Y181C
From the text: (§3) C8166 HIV-1 Luciferase Assay (EC50)
(§4) Plasmid: pGL3 Basic LTR/TAR #12
(§5) C8166 cells are a human T-lymphotrophic virus type 1 immortalized but nonexpressing line of cord blood lymphocytes and are highly permissive to HIV-1 infection. The reporter cells were made by electroporating C8166 cells with pGL3 Basic LTR/TAR and then selecting positive clones with blasticidine. The clone C8166-LTRluc #A8-F5-G7 was selected by 3 consecutive rounds of limiting dilution under blasticidine selection.
(§6) Media: Complete media consisting of: RPMI 1640+10% FBS+10^−5 M
(§7) β-mercaptoethanol+10 μg/ml gentamycin. Cultures are maintained in complete media with 5 μg/ml blasticidine, however, selection is removed for the assay.
(§8) Luciferase Assay Protocol
(§9) Eleven serial dilutions of 2.5× are made at 8× desired final concentration in a 1 ml deep well titer plate (96 wells). The 12th well contains complete media with no inhibitor and serves as the positive control. All samples contain the same concentration of DMSO (≦0.1% DMSO). A 25 μl aliquot of inhibitor is added, to triplicate wells, of a 96 well tissue culture treated clear view black microtiter plate (Corning Costar catalogue # 3904). The last row is reserved for uninfected C8166 LTRluc cells to serve as the background blank control and the first row is media alone.
Count C8166 LTRluc cells and place in a minimal volume of complete RPMI 1640 in a tissue culture flask (ex. 30×10^6 cells in 10 ml media/25 cm^2 flask). […] Incubate cells for 1.5 hours at 37° C. on a rotating rack in a 5% CO2 incubator. Resuspend cells in complete RPMI to give a final concentration of 25,000-cells/175 μl. Add 175 μl of cell mix to wells of 96 well microtiter plate containing 25 μl 8× inhibitors. Add 25,000 uninfected C8166-LTRluc cells/well in 200 μl complete RPMI to last row for background control. Incubate cells at 37° C. in 5% CO2 incubator for 3 days.
(§10) Add 50 μl Steady Glo (luciferase substrate T1/2=5 hours Promega catalogue # E2520) to each well of the 96 well plate. Determine the relative light units (RLU) of luciferase using the BMG LUMlstar Galaxy luminometer. Plates are read from the bottom for 2 seconds per well with a gain of 240.
(§11) The level of inhibition (% inhibition) of each well containing inhibitor was calculated with the following equation: […]
The calculated % inhibition values were then used to determine EC50, slope factor (n) and maximum inhibition (Imax) by the non-linear regression routine NLIN procedure of SAS using the following equation:
as §2

[4] = system: HIV-1 (wild type) in C8166 LTRluc cells; experiment: C8166 HIV-1 luciferase assay (EC50), wild type; format: cell-based; conditions: Human immunodeficiency virus 1, C8166 HIV-1 luciferase assay (no *)
From the text: as §3, §4
Plasmid is the pGL3 Basic Vector (a promoterless luciferase expression vector from Promega catalogue #E1751) with the addition of HIV-1 H×B2 LTR sequence from nucleotide −138 to +80 (Sca1-HindIII) upstream of the luciferase gene and the gene for blasticidine resistance cloned in.
as §5, §6, §7, §8
as §9, with “Serial dilutions of HIV-1 inhibitors compounds are prepared in complete media from 10 mM DMSO stock solutions. Eleven” for “Eleven”
Count C8166 LTRluc cells and place in a minimal volume of complete RPMI 1640 in a tissue culture flask (ex. 30×10^6 cells in 10 ml media/25 cm^2 flask). Infect cells with HIV-1 at a moi of 0.005. Incubate cells for 1.5 hours at 37° C. on a rotating rack in a 5% CO2 incubator. Resuspend cells in complete RPMI to give a final concentration of 25,000-cells/175 μl. Add 175 μl of cell mix to wells of 96 well microtiter plate containing 25 μl 8× inhibitors. Add 25,000 uninfected C8166-LTRluc cells/well in 200 μl complete RPMI to last row for background control. Incubate cells at 37° C. in 5% CO2 incubator for 3 days.
as §10, §11
The calculated % inhibition values were then used to determine EC50, slope factor (n) and maximum inhibition (Imax) by the non-linear regression routine NLIN procedure of SAS using the following equation: […]
as §1, §2

| EC50 (HIV-1 (wild type)) [nM] | Structure (SMILES) | IC50 [1] [nM] | IC50 [2] [nM] | EC50 [3] [nM] | EC50 [4] [nM] |
| --- | --- | --- | --- | --- | --- |
| 50 to 100 | O=C(COc1nnnn1-c1cccc2ccccc12)Nc1ccccc1[N+](=O)[O-] [Entry 302] |  |  |  |  |
|  | CC(C)(C)c1ccc(-n2nnnc2SCC(=O)Nc2ccc([N+](=O)[O-])cc2Cl)c(Cl)c1 [Entry 602] | > 100 | < 50 | > 100 | 50 to 100 |
|  | CC(C)(C)c1ccc(-n2nnnc2SCC(=O)Nc2ccc(S(N)(=O)=O)cc2Cl)c(Cl)c1 [Entry 604] | < 50 | < 50 | < 50 | < 50 |
|  | CC(C)(C)c1ccc(-n2nnnc2SCC(=O)Nc2ccc(S(=O)(=O)c3ccc(Cl)cc3)cc2Cl)c(Cl)c1 [Entry 605] | > 100 | < 50 | > 100 | 50 to 100 |
|  | CC(C)(C)c1ccc(-n2nnnc2SCC(=O)Nc2ccc(S(=O)(=O)c3ccccc3)cc2Cl)c(Cl)c1 [Entry 606] | 50 to 100 | < 50 | 50 to 100 | < 50 |
|  | CC(C)S(=O)(=O)c1ccc(NC(=O)CSc2nnnn2-c2ccc(C(C)(C)C)cc2Cl)c(Cl)c1 [Entry 607] | > 100 | < 50 | 50 to 100 | < 50 |
|  | CC(C)CS(=O)(=O)c1ccc(NC(=O)CSc2nnnn2-c2ccc(C(C)(C)C)cc2Cl)c(Cl)c1 [Entry 608] | > 100 | < 50 | 50 to 100 | < 50 |
|  | CN1CCN(c2ccc(NC(=O)CSc3nnnn3-c3ccc(C(C)(C)C)cc3Cl)c(Cl)c2)CC1 [Entry 610] | > 100 | < 50 | > 100 | < 50 |
|  | CC(C)(C)c1ccc(-n2nnnc2SCC(=O)Nc2ccc(N3CCOCC3)cc2Cl)c(Cl)c1 [Entry 611] | > 100 | < 50 | > 100 | < 50 |
|  | CC(C)(C)c1ccc(-n2nnnc2SCC(=O)Nc2ccc(N3CCCC3)cc2Cl)c(Cl)c1 [Entry 612] | > 100 | < 50 | > 100 | 50 to 100 |
|  | CC(C)(C)c1ccc(-n2nnnc2SCC(=O)Nc2ccc(N3CCCCC3)cc2Cl)c(Cl)c1 [Entry 613] | > 100 | < 50 | > 100 | < 50 |
|  | CC(C)(C)OC(=O)N1CCN(c2ccc(NC(=O)CSc3nnnn3-c3ccc(C(C)(C)C)cc3Cl)c(Cl)c2)CC1 [Entry 614] | > 100 | < 50 | > 100 | < 50 |
|  | CC(C)(C)c1ccc(-n2nnnc2SCC(=O)Nc2ccc(N3CCNCC3)cc2Cl)c(Cl)c1 [Entry 615] | > 100 | < 50 | > 100 | < 50 |
|  | CC(C)(C)c1ccc(-n2nnnc2SCC(=O)Nc2ccc(C(=O)O)cc2Cl)c(Cl)c1 [Entry 616] | 50 to 100 | < 50 | < 50 | < 50 |
|  | CC(C)(C)c1ccc(-n2nnnc2SCC(=O)Nc2ccc(N)cc2Cl)c(Cl)c1 [Entry 617] | > 100 | < 50 | 50 to 100 | < 50 |
|  | Cc1cc(C(F)(F)F)cc(-n2nnnc2SCC(=O)Nc2ccc(S(N)(=O)=O)cc2Cl)c1Cl [Entry 703] | 50 to 100 | < 50 | < 50 | < 50 |
|  | CCN(CC)c1ccc(-n2nnnc2SCC(=O)Nc2ccccc2Cl)c(Cl)c1 [Entry 705] | > 100 | < 50 | > 100 | < 50 |
|  | O=C(CSc1nnnn1-c1ccc(I)cc1Cl)Nc1ccccc1Cl [Entry 706] | > 100 | < 50 | > 100 | < 50 |
|  | CCc1ccc(-n2nnnc2SCC(=O)Nc2ccccc2Cl)c(Cl)c1 [Entry 707] | > 100 | < 50 | > 100 | < 50 |
|  | C=CCc1ccc(-n2nnnc2SCC(=O)Nc2ccccc2Cl)c(Cl)c1 [Entry 708] | > 100 | < 50 | > 100 | < 50 |
|  | CC(C)=CCc1ccc(-n2nnnc2SCC(=O)Nc2ccccc2Cl)c(Cl)c1 [Entry 709] | > 100 | < 50 | > 100 | > 100 |
|  | CC(C)(C)c1ccc(-n2nnnc2SCC(=O)Nc2ccncc2Cl)c(Cl)c1 [Entry 801] | < 50 | < 50 | < 50 | < 50 |
|  | Cc1ccc(NC(=O)CSc2nnnn2-c2ccc(C(C)(C)C)cc2Cl)c(Cl)n1 [Entry 802] | > 100 | < 50 | 50 to 100 | < 50 |
